In turn, `Cn1cc(C(=O)Nc2ccccc2-c2ccccc2)c(C(F)(F)F)c1` [Compound 1.01, N-(2-biphenylyl)-1-methyl-4-trifluoromethylpyrrol-3-carboxamide] had a melting point of 100 to 102 °C.

As a reminder, the melting point is the temperature of the solid-liquid transition.

The values above are taken from patent publication US6365620B2, “Trifluoromethylpyrrolcarboxamides” (Syngenta Crop Protection, Inc., priority 1998, dated 2002).
